ChEMBL document CHEMBL1151988, “Antineoplastic agents. 571. Total synthesis of bacillistatin 2” (2009)
≈ marks a conversion by molar mass, not a printed value.

Tests used:
P388 = assay: Cytotoxicity against mouse P388 cells; type: functional; conditions: read-out: ED50 (the source's name)
DU-145 = assay: Cytotoxicity against human DU145 cells; type: functional

CC[C@H](C)[C@@H](OC(=O)[C@@H](NC(=O)[C@H](C)OCc1ccccc1)C(C)C)C(=O)N[C@@H](C(=O)O[C@@H](C)C(=O)N[C@H](C(=O)O[C@@H](C(=O)N[C@@H](C(=O)O[C@@H](C)C(=O)N[C@H](C(=O)O[C@H](CC(C)C)C(=O)N[C@@H](C(=O)OC(C)(C)C)C(C)C)C(C)C)C(C)C)[C@@H](C)CC)C(C)C)C(C)C
EC50 (P388): 2.1 µg/mL (≈ 1.59 µM)

CC[C@H](C)[C@@H](OC(=O)[C@@H](NC(=O)[C@H](C)O)C(C)C)C(=O)N[C@@H](C(=O)O[C@@H](C)C(=O)N[C@H](C(=O)O[C@@H](C(=O)N[C@@H](C(=O)O[C@@H](C)C(=O)N[C@H](C(=O)O[C@H](CC(C)C)C(=O)N[C@@H](C(=O)OC(C)(C)C)C(C)C)C(C)C)C(C)C)[C@@H](C)CC)C(C)C)C(C)C
EC50 (P388): 2 µg/mL (≈ 1.63 µM)

CC[C@H](C)[C@@H](OC(=O)[C@@H](NC(=O)[C@H](C)OC(=O)[C@H](NC(=O)[C@H](OC(=O)[C@@H](NC(=O)[C@@H](C)OCc1ccccc1)C(C)C)[C@@H](C)CC)C(C)C)C(C)C)C(=O)N[C@@H](C(=O)OC(C)(C)C)C(C)C
GI50 (DU-145): 10.5 µg/mL (≈ 11.3 µM)
